System: wildtype Wnt signaling cascade
Test: HEK293 TOP Assay (Super TopFlash luciferase reporter, Wnt-3a stimulated)
Type: cell-based
Details: Homo sapiens, HEK293, 16 h, HEK293 TOP reporter cell line, Wnt-3a at EC50, 16 hours incubation, compound dilution series 50 μM to 15 nM
Experimental: In order to discover and characterize small molecules which inhibit the wildtype Wnt pathway, a cellular reporter assay was employed. The corresponding assay cell was generated by transfection of the mammalian cell line HEK293 (ATCC, #CRL-1573) with the Super TopFlash vector (Morin, Science 275, 1997, 1787-1790; Molenaar et al., Cell 86 (3), 1996, 391-399). The HEK293 cell line is cultivated at 37° C. and 5% CO2 in DMEM (Life Technologies, #41965-039), supplemented with 2 mM glutamine, 20 mM HEPES, 1.4 mM pyruvate, 0.15% Na-bicarbonate and 10% foetal bovine serum (GIBCO, #10270). Stable transfectants were generated by selection with 300 μg/ml Hygromycin.
In preparation of the assay, the two cell lines were plated 24 hrs before beginning the test at 10000 cells per well in a 384 micro titre plate (MTP) in 30 μl growth medium. […] The recombinant human Wnt-3a was thereby applied between 2500 and 5 ng/ml in two-fold dilution steps.
Selective inhibitory activity for small molecules on the wildtype Wnt pathway was determined after parallel incubation of both (TOP and FOP) HEK293 reporter cell lines with a compound dilution series from 50 μM to 15 nM in steps of 3.16-fold dilutions in CAFTY buffer (130 mM sodium chloride, 5 mM potassium chloride, 20 mM HEPES, 1 mM magnesium chloride, 5 mM sodium bicarbonate, pH 7.4) containing 2 mM Ca^2+ and 0.01% BSA.
The compounds were thereby serially prediluted in 100% DMSO and thereafter 50 fold into the CAFTY compound dilution buffer (described above).

Compound | IC50
CNC(=O)c1nc[nH]c1C(=O)Nc1ccc(NC(=O)c2c(F)ccc(F)c2F)cc1 [Example 323, N^4-methyl-N^5-{4-[(2,3,6-trifluorobenzoyl)amino]phenyl}-1H-imidazole-4,5-dicarboxamide] | 1.45 µM
CNC(=O)c1nc[nH]c1C(=O)Nc1ccc(NC(=O)c2cccc(F)c2C)cc1 [Example 324, N^5-{4-[(3-fluoro-2-methylbenzoyl)amino]phenyl}-N^4-methyl-1H-imidazole-4,5-dicarboxamide] | 3.2 µM
CNC(=O)c1nc[nH]c1C(=O)Nc1ccc(NC(=O)c2ccc(C)c(F)c2)cc1 [Example 328, N^5-{4-[(3-fluoro-4-methylbenzoyl)amino]phenyl}-N^4-methyl-1H-imidazole-4,5-dicarboxamide] | 5.25 µM
CNC(=O)c1nc[nH]c1C(=O)Nc1ccc(NC(=O)c2ccco2)cc1 [Example 329, N^5-{4-[(furan-2-ylcarbonyl)amino]phenyl}-N^4-methyl-1H-imidazole-4,5-dicarboxamide] | 50 µM
CNC(=O)c1nc[nH]c1C(=O)Nc1ccc(NC(=O)c2cccc(F)c2)cc1 [Example 331, N^5-{4-[(3-fluorobenzoyl)amino]phenyl}-N^4-methyl-1H-imidazole-4,5-dicarboxamide] | 8.6 µM
CNC(=O)c1nc[nH]c1C(=O)Nc1ccc(NC(=O)c2ccn(C)n2)cc1 [Example 332, N^4-methyl-N^5-(4-{[(1-methyl-1H-pyrazol-3-yl)carbonyl]amino}phenyl)-1H-imidazole-4,5-dicarboxamide] | 9.65 µM
CNC(=O)c1nc[nH]c1C(=O)Nc1ccc(NC(=O)c2cc(C)cc(C)c2)cc1 [Example 335, N^5-{4-[(3,5-dimethylbenzoyl)amino]phenyl}-N^4-methyl-1H-imidazole-4,5-dicarboxamide] | 21.5 µM
CNC(=O)c1nc[nH]c1C(=O)Nc1ccc(NC(=O)c2cccc(C)c2)cc1 [Example 336, N^4-methyl-N^5-{4-[(3-methylbenzoyl)amino]phenyl}-1H-imidazole-4,5-dicarboxamide] | 11 µM
CNC(=O)c1nc[nH]c1C(=O)Nc1ccc(NC(=O)c2ccc(C)cc2)cc1 [Example 337, N^4-methyl-N^5-{4-[(4-methylbenzoyl)amino]phenyl}-1H-imidazole-4,5-dicarboxamide] | 23.5 µM
CNC(=O)c1nc[nH]c1C(=O)Nc1ccc(NC(=O)c2ccc(OC)c(F)c2)cc1 [Example 338, N^5-{4-[(3-fluoro-4-methoxybenzoyl)amino]phenyl}-N^4-methyl-1H-imidazole-4,5-dicarboxamide] | 2.8 µM
CNC(=O)c1nc[nH]c1C(=O)Nc1ccc(NC(=O)c2ccccc2N(C)C)cc1 [Example 339, N^5-(4-{[2-(dimethylamino)benzoyl]amino}phenyl)-N^4-methyl-1H-imidazole-4,5-dicarboxamide] | 45.5 µM
CNC(=O)c1nc[nH]c1C(=O)Nc1ccc(NC(=O)c2cncs2)cc1 [Example 345, N^4-methyl-N^5-{4-[(1,3-thiazol-5-ylcarbonyl)amino]phenyl}-1H-imidazole-4,5-dicarboxamide] | 50 µM
CNC(=O)c1nc[nH]c1C(=O)Nc1ccc(NC(=O)c2cc(F)cc(F)c2F)cc1 [Example 347, N^4-methyl-N^5-{4-[(2,3,5-trifluorobenzoyl)amino]phenyl}-1H-imidazole-4,5-dicarboxamide] | 34.5 µM
CNC(=O)c1nc[nH]c1C(=O)Nc1ccc(NC(=O)c2ccc(OC)c(OC)c2Cl)cc1 [Example 348, N^5-{4-[(2-chloro-3,4-dimethoxybenzoyl)amino]phenyl}-N^4-methyl-1H-imidazole-4,5-dicarboxamide] | 7.05 µM
CNC(=O)c1nc[nH]c1C(=O)Nc1ccc(NC(=O)c2ccc(C#N)c(F)c2)cc1 [Example 350, N^5-{4-[(4-cyano-3-fluorobenzoyl)amino]phenyl}-N^4-methyl-1H-imidazole-4,5-dicarboxamide] | 6.5 µM
CNC(=O)c1nc[nH]c1C(=O)Nc1ccc(NC(=O)c2ccnc(Cl)c2)cc1 [Example 351, N^5-(4-{[(2-chloropyridin-4-yl)carbonyl]amino}phenyl)-N^4-methyl-1H-imidazole-4,5-dicarboxamide] | 12.5 µM

— patent US9884063B2, “Amido-substituted azole compounds” (Bayer Pharma Aktiengesellschaft, priority 2014, dated 2018)
